Drawing on patent publication US8148391B2 (Cephalon, Inc., priority 2006, dated 2012), this text covers IC50 for 17 molecules.

In test [1] the target is T1, c-Met (cytoplasmic domain) (Homo sapiens, UniProt P08581).
T1 construct: 10 ng/mL c-Met (cytoplasmic domain, Invitrogen Corporation #PV3143); purchased Invitrogen Corporation PV3143
In words: c-Met Kinase Assay (same methods as for ALK, with modifications). It is filed as biochemical. The following applies: c-Met kinase inhibition, 1 μM ATP (Km level); read-out: cMet Activity. In outline:
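This plate-based kinase format uses immobilized phospholipase C-γ as substrate, phosphorylated by c-Met cytoplasmic domain (10 ng/mL) at 37° C for 15 minutes.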

In test [2] the target is T2, baculovirus-expressed ALK (Homo sapiens, UniProt Q9UM73).
T2 construct: host or cells: baculovirus expression system
T2 sequence (Q9UM73 19-1620): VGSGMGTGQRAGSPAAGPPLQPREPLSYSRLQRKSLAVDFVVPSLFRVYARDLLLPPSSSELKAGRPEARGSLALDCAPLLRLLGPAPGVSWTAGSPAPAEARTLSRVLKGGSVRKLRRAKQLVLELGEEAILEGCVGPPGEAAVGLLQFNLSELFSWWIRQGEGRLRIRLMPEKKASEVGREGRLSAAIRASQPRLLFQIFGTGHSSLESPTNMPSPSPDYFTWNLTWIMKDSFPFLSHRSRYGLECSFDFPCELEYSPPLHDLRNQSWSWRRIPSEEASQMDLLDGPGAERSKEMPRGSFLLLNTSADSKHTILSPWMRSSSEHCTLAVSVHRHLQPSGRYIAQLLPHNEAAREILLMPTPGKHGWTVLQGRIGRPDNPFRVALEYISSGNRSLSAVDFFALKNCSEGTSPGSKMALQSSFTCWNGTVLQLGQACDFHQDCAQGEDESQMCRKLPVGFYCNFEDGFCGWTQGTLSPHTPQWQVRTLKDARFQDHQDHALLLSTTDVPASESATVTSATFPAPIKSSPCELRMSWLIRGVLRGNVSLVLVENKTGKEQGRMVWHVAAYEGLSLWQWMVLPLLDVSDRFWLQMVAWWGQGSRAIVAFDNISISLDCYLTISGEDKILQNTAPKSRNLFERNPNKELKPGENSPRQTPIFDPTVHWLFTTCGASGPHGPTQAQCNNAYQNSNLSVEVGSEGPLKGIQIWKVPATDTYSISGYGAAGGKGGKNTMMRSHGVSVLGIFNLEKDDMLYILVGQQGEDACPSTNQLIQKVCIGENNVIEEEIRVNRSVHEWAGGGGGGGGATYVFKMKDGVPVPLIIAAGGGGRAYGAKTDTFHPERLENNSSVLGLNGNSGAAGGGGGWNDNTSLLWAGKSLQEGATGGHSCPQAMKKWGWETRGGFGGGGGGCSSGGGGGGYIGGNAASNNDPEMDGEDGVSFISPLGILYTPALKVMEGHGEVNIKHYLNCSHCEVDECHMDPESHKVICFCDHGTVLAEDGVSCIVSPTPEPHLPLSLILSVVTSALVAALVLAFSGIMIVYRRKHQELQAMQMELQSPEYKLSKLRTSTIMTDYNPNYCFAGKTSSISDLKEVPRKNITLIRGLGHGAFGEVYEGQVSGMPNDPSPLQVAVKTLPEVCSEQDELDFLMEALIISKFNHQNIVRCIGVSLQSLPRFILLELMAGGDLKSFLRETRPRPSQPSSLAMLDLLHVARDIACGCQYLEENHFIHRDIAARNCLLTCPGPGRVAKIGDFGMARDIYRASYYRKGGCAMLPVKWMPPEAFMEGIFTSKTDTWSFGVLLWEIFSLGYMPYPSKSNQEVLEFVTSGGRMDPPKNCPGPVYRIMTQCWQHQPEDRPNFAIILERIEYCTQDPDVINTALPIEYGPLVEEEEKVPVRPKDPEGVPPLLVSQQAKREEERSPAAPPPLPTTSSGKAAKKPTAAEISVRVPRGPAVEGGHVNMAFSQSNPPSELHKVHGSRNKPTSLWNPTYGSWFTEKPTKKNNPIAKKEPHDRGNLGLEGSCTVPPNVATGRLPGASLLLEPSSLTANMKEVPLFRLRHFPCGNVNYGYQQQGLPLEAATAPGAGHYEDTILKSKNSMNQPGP
In words: ALK Kinase Assay (ELISA-type, time-resolved fluorescence). In kind it is biochemical. The following applies: ALK kinase inhibition, 1 μM ATP (Km level); read-out: ALK Activity. In outline:
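Substrate coating: phospholipase C-γ, 10 μg/mL in TBS. Kinase step: 30 ng/ml ALK, 15 min, 37° C. Detection and analysis: Eu-N1 PT66 antibody, with IC50 fitted as a sigmoidal variable-slope dose-response curve.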
(In an ELISA, binding on a coated surface is turned into a signal by an enzyme label.)

Each structure is given as a SMILES string. Some results are limits rather than exact numbers.

T1 sequence (P08581 956-1390 limits assumed): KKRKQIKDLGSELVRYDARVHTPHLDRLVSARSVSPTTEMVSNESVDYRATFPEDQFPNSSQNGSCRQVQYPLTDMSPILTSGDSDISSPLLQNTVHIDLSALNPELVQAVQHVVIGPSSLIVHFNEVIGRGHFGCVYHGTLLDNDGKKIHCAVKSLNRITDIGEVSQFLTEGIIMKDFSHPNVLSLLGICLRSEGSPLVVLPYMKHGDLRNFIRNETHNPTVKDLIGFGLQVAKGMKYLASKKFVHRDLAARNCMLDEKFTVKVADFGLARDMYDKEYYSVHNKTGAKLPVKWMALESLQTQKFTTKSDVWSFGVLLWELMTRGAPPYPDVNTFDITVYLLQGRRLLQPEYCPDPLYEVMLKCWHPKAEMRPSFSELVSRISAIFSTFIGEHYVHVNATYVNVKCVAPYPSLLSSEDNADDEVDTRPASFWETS

Turning to `CNC(=O)c1ccccc1Nc1nc(Nc2ccc(OC)c3c2N(C)C(=O)CCC3)ncc1Cl` [Example 123, 2-[5-Chloro-2-(6-methoxy-1-methyl-2-oxo-2,3,4,5-tetrahydro-1H-benzo[b]azepin-9-ylamino)-pyrimidin-4-ylamino]-N-methyl-benzamide], the figures for the IC50 in test [1] and in test [2] were above 10 µM and 100 to 1000 nM, respectively.
In the case of `COc1cc(N2CCOCC2)ccc1Nc1nc(Nc2ccc(OC)c3c2N(C)C(=O)CCC3)ncc1Cl` [Example 124, 9-[5-Chloro-4-(2-methoxy-4-morpholin-4-yl-phenylamino)-pyrimidin-2-ylamino]-6-methoxy-1-methyl-1,3,4,5-tetrahydro-benzo[b]azepin-2-one], the results for the IC50 in test [1] and in test [2] were above 10 µM and below 100 nM, respectively.
For `CCN1C(=O)CCCc2c(OC)ccc(Nc3ncc(Cl)c(Nc4ccc(N5CCOCC5)cc4OC)n3)c21` [Example 125, 9-[5-Chloro-4-(2-methoxy-4-morpholin-4-yl-phenylamino)-pyrimidin-2-ylamino]-1-ethyl-6-methoxy-1,3,4,5-tetrahydro-benzo[b]azepin-2-one], in that order: above 10 µM and below 100 nM.
The matching figures for `CNC(=O)c1ccccc1Nc1nc(Nc2ccc3c(c2OC)CCCC(=O)N3CCOC)ncc1Cl` [Example 126, 2-{5-Chloro-2-[6-methoxy-1-(2-methoxy-ethyl)-2-oxo-2,3,4,5-tetrahydro-1H-benzo[b]azepin-7-ylamino]-pyrimidin-4-ylamino}-N-methyl-benzamide]: 1 to 10 µM and below 100 nM.
Take `COCCN1C(=O)CCCc2c1ccc(Nc1ncc(Cl)c(Nc3ccc(N4CCOCC4)cc3OC)n1)c2OC` [Example 127, 7-[5-Chloro-4-(2-methoxy-4-morpholin-4-yl-phenylamino)-pyrimidin-2-ylamino]-6-methoxy-1-(2-methoxy-ethyl)-1,3,4,5-tetrahydro-benzo[b]azepin-2-one]: the values for the IC50 in test [1] and in test [2] were above 10 µM and below 100 nM, respectively.
As for `COCCN1C(=O)CCCc2c1ccc(Nc1ncc(Cl)c(N[C@@H]3[C@H](C(N)=O)[C@H]4C=C[C@@H]3C4)n1)c2OC` [Example 128, (2-exo,3-exo)-3-{5-Chloro-2-[6-methoxy-1-(2-methoxy-ethyl)-2-oxo-2,3,4,5-tetrahydro-1H-benzo[b]azepin-7-ylamino]-pyrimidin-4-ylamino}-bicyclo[2.2.1]hept-5-ene-2-carboxylic acid amide], the IC50 in test [1] was above 10 µM; in test [2], below 100 nM.
In the case of `CCN1C(=O)CCCc2c1ccc(Nc1ncc(Cl)c(NC3C4CCC(C4)C3C(N)=O)n1)c2OC` (stereo not drawn) [Example 129, (2-exo, 3-exo)-3-[5-Chloro-2-(1-ethyl-6-methoxy-2-oxo-2,3,4,5-tetrahydro-1H-benzo[b]azepin-7-ylamino)-pyrimidin-4-ylamino]-bicyclo[2.2.1]heptane-2-carboxylic acid amide], the IC50 in test [1] is above 10 µM; in test [2] it was below 100 nM.
For `CCN1C(=O)CCCc2cc(Nc3ncc(Cl)c(N[C@@H]4CCCC[C@H]4NS(C)(=O)=O)n3)c(OC)cc21` [Example 130, N-{(1R,2R)-2-[5-Chloro-2-(1-ethyl-8-methoxy-2-oxo-2,3,4,5-tetrahydro-1H-benzo[b]azepin-7-ylamino)-pyrimidin-4-ylamino]-cyclohexyl}-methanesulfonamide], in that order: above 10 µM and below 100 nM.
Turning to `CCN1C(=O)CCCc2c1ccc(Nc1ncc(Cl)c(N[C@@H]3[C@H](C(N)=O)[C@H]4C=C[C@@H]3C4)n1)c2OC` [Example 132, (1R,2R,3S,4S)-3-[5-Chloro-2-(1-ethyl-6-methoxy-2-oxo-2,3,4,5-tetrahydro-1H-benzo[b]azepin-7-ylamino)-pyrimidin-4-ylamino]-bicyclo[2.2.1]hept-5-ene-2-carboxylic acid amide], the IC50 in test [1] is above 10 µM; in test [2], 1000 to 10000 nM.
In the case of `CCN1C(=O)CCCc2c1ccc(Nc1ncc(Cl)c(N[C@H]3[C@@H](C(N)=O)[C@@H]4C=C[C@H]3C4)n1)c2OC` [Example 133, (1S,2S,3R,4R)-3-[5-Chloro-2-(1-ethyl-6-methoxy-2-oxo-2,3,4,5-tetrahydro-1H-benzo[b]azepin-7-ylamino)-pyrimidin-4-ylamino]-bicyclo[2.2.1]hept-5-ene-2-carboxylic acid amide], the results for the IC50 in test [1] and in test [2] were above 10 µM and below 100 nM, respectively.
For `CCN1C(=O)CCCc2cc(Nc3ncc(Cl)c(Nc4ccc(N5CCOCC5)cc4OC)n3)c(OC)cc21` [Example 135, 7-[5-Chloro-4-(2-methoxy-4-morpholin-4-yl-phenylamino)-pyrimidin-2-ylamino]-1-ethyl-8-methoxy-1,3,4,5-tetrahydro-benzo[b]azepin-2-one], in that order: above 10 µM and below 100 nM.
On to `CCN1C(=O)CCCc2cc(Nc3ncc(Cl)c(Nc4cc(Cl)ccc4OC)n3)c(OC)cc21` [Example 137, 7-[5-Chloro-4-(5-chloro-2-methoxy-phenylamino)-pyrimidin-2-ylamino]-1-ethyl-8-methoxy-1,3,4,5-tetrahydro-benzo[b]azepin-2-one], for which the figures for the IC50 in test [1] and in test [2] were above 10 µM and 100 to 1000 nM, respectively.
With `CCN1C(=O)CCCc2cc(Nc3ncc(Cl)c(Nc4c(F)cccc4C(=O)NC)n3)c(OC)cc21` [Example 138, 2-[5-Chloro-2-(1-ethyl-8-methoxy-2-oxo-2,3,4,5-tetrahydro-1H-benzo[b]azepin-7-ylamino)-pyrimidin-4-ylamino]-3-fluoro-N-methyl-benzamide], the values for the IC50 in test [1] and in test [2] were 1 to 10 µM and below 100 nM, respectively.
For the molecule `COc1cc(N2CCOCC2)ccc1Nc1nc(Nc2ccc3c(c2OC)CCCC(=O)N3)ncc1Cl` [Example 140, 7-[5-Chloro-4-(2-methoxy-4-morpholin-4-yl-phenylamino)-pyrimidin-2-ylamino]-6-methoxy-1,3,4,5-tetrahydro-benzo[b]azepin-2-one], the IC50 was above 10 µM in test [1] and below 100 nM in test [2].
Regarding `CCN1C(=O)C(C)(C)CCc2c1ccc(Nc1ncc(Cl)c(Nc3ccc(N4CCOCC4)cc3OC)n1)c2OC` [Example 141, 7-[5-Chloro-4-(2-methoxy-4-morpholin-4-yl-phenylamino)-pyrimidin-2-ylamino]-1-ethyl-6-methoxy-3,3-dimethyl-1,3,4,5-tetrahydro-benzo[b]azepin-2-one], the IC50 in test [1] is above 10 µM; in test [2], 100 to 1000 nM.
With `CCN1C(=O)C(C)(C)CCc2c1ccc(Nc1ncc(Cl)c(NC3C4C=CC(C4)C3C(N)=O)n1)c2OC` (stereo not drawn) [Example 142, (2-exo, 3-exo)-3-[5-Chloro-2-(1-ethyl-6-methoxy-3,3-dimethyl-2-oxo-2,3,4,5-tetrahydro-1H-benzo[b]azepin-7-ylamino)-pyrimidin-4-ylamino]-bicyclo[2.2.1]hept-5-ene-2-carboxylic acid amide], the figures for the IC50 in test [1] and in test [2] were above 10 µM and below 100 nM, respectively.
Turning to `CCN1C(=O)C(C)(C)CCc2c1ccc(Nc1ncc(Cl)c(N[C@@H]3CCCC[C@H]3NS(C)(=O)=O)n1)c2OC` [Example 143, N-{(1R,2R)-2-[5-Chloro-2-(1-ethyl-6-methoxy-3,3-dimethyl-2-oxo-2,3,4,5-tetrahydro-1H-benzo[b]azepin-7-ylamino)-pyrimidin-4-ylamino]-cyclohexyl}-methanesulfonamide], the IC50 in test [1] was above 10 µM; in test [2], below 100 nM.
